Where two headings read alike, the source gives them in different places. Marks after values point to notes of the source that are not given here.
Key:
Huh6 cells = tested on: Huh6 cells
Description: All experiments were performed in duplicate.
3.8–4.0 × 10^5 cells per well were seeded into 6‐well plates with 3 mL of RPMI (4% FBS) for 12 hr, then dilutions of stock solutions of the diagnostic mutagens were added for different time periods (4, 24, and 48 hr). In each experimental series solvent controls were included. Subsequently, the cells were washed twice with 3.0 mL medium. […] Finally, the cells were washed and trypsinised. Afterwards the cells were washed twice with 8.0 mL RPMI and collected on slides by cytocentrifugation (600 rpm, 5 min). The slides were air dried, fixed, and stained with DiffQuick according to the instructions of the manufacturer. For each experimental point, two cultures were tested per dose. From each culture ≥1,000 BN cells were evaluated under 400‐fold magnification (Nikon Photophot‐FXA, Tokyo, Japan). At least 2,000 binucleated cells were analyzed per dose for the determination of the different nuclear anomalies (MN, NBuds, and NBs).
The experiments were performed as described in the previous chapter. The cells were exposed only to one dose of the different mutagens and were cultivated after the seeding in 6‐well plates which contained 4% or 10% FBS in RPMI, respectively.
Data were evaluated by generalized linear model with Poisson counts. Chi‐square tests for overdispersion were applied. […] P values ≤0.05 were considered statistically significant.
^150-60 000 cells were seeded in 6 well plates with 3 ml RPMI (4% FBS), subsequently different solutions of the test compound (dissolved in medium) were added. After treatment for different time periods, the cells was washed and processed as described in the Material and Method section. […] From each culture 1000 binoculated cells were evaluated. BN-MN – number of micronucleated cells; MN - total number of micronuclei; CBPI – cytokinesis-block proliferation index
^1The experiments were conducted essentially as described in the footnote of Table S1A-I. *p≤0.05

HepaRG = details: cited from earlier work
HepG2 = details: cited from earlier work
Hep3B = details: cited from earlier work
Human lymphocytes = details: cited from earlier work
[1] = ref IARC (2018); cited from earlier work
[2] = 10% FBS, 24 hr treatment, 50 µM
[3] = 10% FBS, 24 hr treatment, 100 µM
[4] = HepaRG, ref Le Hegarat et al., 2010

Cn1c(N)nc2ncc(-c3ccccc3)cc21 [PhiP, 2‐Amino‐1‐methyl‐6‐phenylimidazo[4,5‐b]pyridine]
MN effects after 24 hr (or longer) compared with 4 hr treatment (in words) (Huh6 cells; 4% FBS): more pronounced effects
BN-MN (number of micronucleated cells) (Huh6 cells; 4% FBS, 4hrs, 25 µM): 23.5 ± 0.7 ‰
Bridges (Huh6 cells; 4% FBS, 4hrs, 25 µM): 0.5 ± 0.7 ‰
Buds (Huh6 cells; 4% FBS, 4hrs, 25 µM): 18.0 ± 5.7 ‰
CBPI (Huh6 cells; 4% FBS, 4hrs, 25 µM): 1.7 ± 0.1
MN (total number of micronuclei) (Huh6 cells; 4% FBS, 4hrs, 25 µM): 23.5 ± 0.7 ‰
BN-MN (number of micronucleated cells) (Huh6 cells; 4% FBS, 4hrs, 50 µM): 22.5 ± 2.1 ‰
Bridges (Huh6 cells; 4% FBS, 4hrs, 50 µM): 2.0 ± 1.4 ‰
Buds (Huh6 cells; 4% FBS, 4hrs, 50 µM): 19.0 ± 7.1 ‰
CBPI (Huh6 cells; 4% FBS, 4hrs, 50 µM): 1.6 ± 0.2
MN (total number of micronuclei) (Huh6 cells; 4% FBS, 4hrs, 50 µM): 22.5 ± 2.1 ‰
BN-MN (number of micronucleated cells) (Huh6 cells; 4% FBS, 4hrs, 100 µM): 26 ± 1.4 ‰
Bridges (Huh6 cells; 4% FBS, 4hrs, 100 µM): 1.5 ± 0.7 ‰
Buds (Huh6 cells; 4% FBS, 4hrs, 100 µM): 23.5 ± 6.4 ‰
CBPI (Huh6 cells; 4% FBS, 4hrs, 100 µM): 1.7 ± 0.0
MN (total number of micronuclei) (Huh6 cells; 4% FBS, 4hrs, 100 µM): 28 ± 1.4 ‰
BN-MN (number of micronucleated cells) (Huh6 cells; 4% FBS, 24hrs, 25 µM): 17.5 ± 2.1 ‰
Bridges (Huh6 cells; 4% FBS, 24hrs, 25 µM): 0.0 ± 0.0 ‰
Buds (Huh6 cells; 4% FBS, 24hrs, 25 µM): 10.5 ± 0.7 ‰
CBPI (Huh6 cells; 4% FBS, 24hrs, 25 µM): 1.9 ± 0.1
MN (total number of micronuclei) (Huh6 cells; 4% FBS, 24hrs, 25 µM): 17.5 ± 2.1 ‰
BN-MN (number of micronucleated cells) (Huh6 cells; 4% FBS, 24hrs, 50 µM): 26.5 ± 0.7* ‰
Bridges (Huh6 cells; 4% FBS, 24hrs, 50 µM): 1.5 ± 0.7 ‰
Buds (Huh6 cells; 4% FBS, 24hrs, 50 µM): 24.5 ± 0.7* ‰
CBPI (Huh6 cells; 4% FBS, 24hrs, 50 µM): 1.8 ± 0.0
MN (total number of micronuclei) (Huh6 cells; 4% FBS, 24hrs, 50 µM): 30.0 ± 1.4* ‰
BN-MN (number of micronucleated cells) (Huh6 cells; 4% FBS, 24hrs, 100 µM): 49.5 ± 2.1* ‰
Bridges (Huh6 cells; 4% FBS, 24hrs, 100 µM): 3.0 ± 0.0 ‰
Buds (Huh6 cells; 4% FBS, 24hrs, 100 µM): 34.0 ± 1.4* ‰
CBPI (Huh6 cells; 4% FBS, 24hrs, 100 µM): 1.9 ± 0.0
MN (total number of micronuclei) (Huh6 cells; 4% FBS, 24hrs, 100 µM): 49.5 ± 2.1* ‰
BN-MN (number of micronucleated cells) (Huh6 cells; 4% FBS, 48hrs, 25 µM): 20.0 ± 1.4 ‰
Bridges (Huh6 cells; 4% FBS, 48hrs, 25 µM): 0.0 ± 0.0 ‰
Buds (Huh6 cells; 4% FBS, 48hrs, 25 µM): 20.5 ± 3.5 ‰
CBPI (Huh6 cells; 4% FBS, 48hrs, 25 µM): 1.9 ± 0.1
MN (total number of micronuclei) (Huh6 cells; 4% FBS, 48hrs, 25 µM): 20.5 ± 0.7 ‰
BN-MN (number of micronucleated cells) (Huh6 cells; 4% FBS, 48hrs, 50 µM): 20.5 ± 3.5 ‰
Bridges (Huh6 cells; 4% FBS, 48hrs, 50 µM): 0.5 ± 0.7 ‰
Buds (Huh6 cells; 4% FBS, 48hrs, 50 µM): 22.0 ± 4.2 ‰
CBPI (Huh6 cells; 4% FBS, 48hrs, 50 µM): 1.9 ± 0.0
MN (total number of micronuclei) (Huh6 cells; 4% FBS, 48hrs, 50 µM): 21.5 ± 3.5 ‰
BN-MN (number of micronucleated cells) (Huh6 cells; 4% FBS, 48hrs, 100 µM): 22.0 ± 1.4 ‰
Bridges (Huh6 cells; 4% FBS, 48hrs, 100 µM): 0.5 ± 0.7 ‰
Buds (Huh6 cells; 4% FBS, 48hrs, 100 µM): 29.5 ± 0.7* ‰
CBPI (Huh6 cells; 4% FBS, 48hrs, 100 µM): 1.8 ± 0.2
MN (total number of micronuclei) (Huh6 cells; 4% FBS, 48hrs, 100 µM): 24.0 ± 1.4 ‰
BN-MN (number of micronucleated cells) (Huh6 cells; [2]): 50.0 ± 2.8*
Bridges (Huh6 cells; [2]): 1.0 ± 1.4
Buds (Huh6 cells; [2]): 50.0 ± 1.4
CBPI (Huh6 cells; [2]): 2.0 ± 0.1
MN (total number of micronuclei) (Huh6 cells; [2]): 56.5 ± 2.1*
BN-MN (number of micronucleated cells) (Huh6 cells; [3]): 55.0 ± 11.3*
Bridges (Huh6 cells; [3]): 1.5 ± 0.7
Buds (Huh6 cells; [3]): 60.0 ± 7.1*
CBPI (Huh6 cells; [3]): 1.8 ± 0.0
MN (total number of micronuclei) (Huh6 cells; [3]): 61 ± 12.7*
MN frequencies with 10% serum compared with 4% serum (in words) (Huh6 cells; 24 hr treatment): stronger effects
Lowest effective concentration (LOEC) in micronucleus experiments (Huh6 cells; Huh6): 50.0 µM
Lowest effective concentration (LOEC) in micronucleus experiments (HepaRG; [4]): Negative
NOEC (highest no observable effect concentration tested) (HepaRG; [4]): 320.0 µM
Lowest effective concentration (LOEC) in micronucleus experiments (HepG2; HepG2, ref Majer et al., 2004): 25.0 (Majer et al., 2004) μM
Lowest effective concentration (LOEC) in micronucleus experiments (Hep3B; Hep3B, ref Majer et al., 2004): Negative
NOEC (highest no observable effect concentration tested) (Hep3B; Hep3B, ref Majer et al., 2004): 300.0 µM
Lowest effective concentration (LOEC) in micronucleus experiments (Human lymphocytes; Human lymphocytes, + S9, ref Katic et al., 2010): 2.5 + S9 (Katic et al., 2010) μM
IARC classification [1]: Formation of guanine adducts; activation: CYP1A2 and SULT; detoxification: GSTs; IARC: Group 2B

Aflatoxin B1 [AFB1]
Lowest effective concentration (LOEC) in micronucleus experiments (Huh6 cells): 10.0 µM
MN effects after 24 hr (or longer) compared with 4 hr treatment (in words) (Huh6 cells): similar
MN frequencies with 10% serum compared with 4% serum (in words) (Huh6 cells): stronger effects
Lowest effective concentration (LOEC) in micronucleus experiments (HepaRG): 0.25 (Le Hegarat et al., 2010) μM
MN formation with the longer exposure time, treatment for 1 or 7 days (in words) (HepaRG): stronger effects
Lowest effective concentration (LOEC) in micronucleus experiments (HepG2): 0.5 (Josse et al., 2012) μM
Lowest effective concentration (LOEC) in micronucleus experiments (Hep3B): 0.5 (Majer et al., 2004) μM
Lowest effective concentration (LOEC) in micronucleus experiments (Human lymphocytes): 0.1 + S9 (Miller et al., 1998) μM
